Converted amounts (≈) assume the structure as drawn.
How the values were obtained:
human (hACC2) = human (hACC2) (Homo sapiens, UniProt O00763); experiment: In vitro ACC inhibition assay (ADP-Glo), hACC2; assay type: biochemical; conditions: Table 2b, additional results, 5 nM ACC2, 20 μM ATP, 20 μM acetyl-CoA
Procedure: The detailed procedure is as follows. […] 10 μL ADP glo reagent was added. […] 20 μL kinase detection reagent was added.

C. albicans = experiment: Antifungal Activity Assay (broth microtiter MIC), C. albicans; assay type: cell-based, Candida albicans; conditions: Candida albicans, ATCC90028, 48 h, Table 3b (additional results); ATCC 90028; 3 replicates; MIC recorded at 48 h; read-out: MIC, C. albicans ATCC 90028
In short: (§1)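 Broth microdilution per CLSI M27-A3 in RPMI 1640+MOPS, inoculum 2.5×10^3 CFU/mL final from overnight Sabouraud dextrose agar cultures at 35° C. Compounds diluted from DMSO stock to 128 μg/mL in water. MIC read visually versus growth control at 48 h.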

C. krusei = experiment: Antifungal Activity Assay (broth microtiter MIC), C. krusei; assay type: cell-based, Candida krusei; conditions: Pichia kudriavzevii, ATCC6258, 48 h, Table 3b (additional results); ATCC 6258; 3 replicates; MIC recorded at 48 h; read-out: MIC, C. krusei ATCC 6258
In short: as §1

C. parapsilosis = experiment: Antifungal Activity Assay (broth microtiter MIC), C. parapsilosis; assay type: cell-based, Candida parapsilosis; conditions: Lodderomyces parapsilosis, ATCC22019, 48 h, Table 3b (additional results); ATCC 22019; 3 replicates; MIC recorded at 48 h; read-out: MIC, C. parapsilosis ATCC 22019
In short: as §1

Botrtyis cinerea (Bc) = experiment: Growth inhibition assay of fungal pathogens, Bc; assay type: cell-based; conditions: 48 h, Botrtyis cinerea; growth inhibition at 48 hours vs 2% DMSO control; read-out: Concentration at 90% Inhibition Bc
In short: (§2)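 Inhibition percentages reflect 48 h OD600 and visual scores relative to a 2% DMSO control. Test concentrations were 50, 10, 2 ppm or 2, 0.4, 0.08 ppm final, applied to spores in 17% V8 medium.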

[1] = system: Collectotrichum graminicola (Cg); experiment: Growth inhibition assay of fungal pathogens, Cg; assay type: cell-based; conditions: 48 h, Collectotrichum graminicola; growth inhibition at 48 hours vs 2% DMSO control; read-out: Concentration at 90% Inhibition Cg
In short: as §2

Diplodia maydis (Dm) = experiment: Growth inhibition assay of fungal pathogens, Dm; assay type: cell-based; conditions: Stenocarpella maydis, 48 h, Diplodia maydis; growth inhibition at 48 hours vs 2% DMSO control; read-out: Concentration at 90% Inhibition Dm
In short: as §2

[2] = system: Fusarium moniliforme (Fm); experiment: Growth inhibition assay of fungal pathogens, Fm; assay type: cell-based; conditions: Fusarium verticillioides, 48 h, Fusarium moniliforme; growth inhibition at 48 hours vs 2% DMSO control; read-out: Concentration at 90% Inhibition Fm
In short: as §2

[3] = system: Fusarium virguliforme (Fv); experiment: Growth inhibition assay of fungal pathogens, Fv; assay type: cell-based; conditions: 48 h, growth inhibition at 48 hours vs 2% DMSO control, read-out: Concentration at 90% Inhibition Fv
In short: as §2

[4] = system: Phytophthora capsici (Pc); experiment: Growth inhibition assay of fungal pathogens, Pc; assay type: cell-based; conditions: 48 h, growth inhibition at 48 hours vs 2% DMSO control, read-out: Concentration at 90% Inhibition Pc
In short: as §2

Rhizoctonia solani (Rs) = experiment: Growth inhibition assay of fungal pathogens, Rs; assay type: cell-based; conditions: 48 h, mycelial plugs, growth inhibition at 48 hours vs 2% DMSO control, read-out: Concentration at 90% Inhibition Rs
Septoria tritici (St) = experiment: Growth inhibition assay of fungal pathogens, St; assay type: cell-based; conditions: Zymoseptoria tritici, 48 h, Septoria tritici; growth inhibition at 48 hours vs 2% DMSO control; read-out: Concentration at 90% Inhibition St
In short: as §2

fungal (fACC2) = fungal (fACC2) (UniProt Q00955); conditions: read-out: fACC2 (in vitro ACC2 Inhibition Assay, IC50); Table 2b, additional results; ADP-Glo, 5 nM ACC2, 20 μM ATP, 20 μM acetyl-CoA
Chain of fungal (fACC2) (Q00955 whole entry): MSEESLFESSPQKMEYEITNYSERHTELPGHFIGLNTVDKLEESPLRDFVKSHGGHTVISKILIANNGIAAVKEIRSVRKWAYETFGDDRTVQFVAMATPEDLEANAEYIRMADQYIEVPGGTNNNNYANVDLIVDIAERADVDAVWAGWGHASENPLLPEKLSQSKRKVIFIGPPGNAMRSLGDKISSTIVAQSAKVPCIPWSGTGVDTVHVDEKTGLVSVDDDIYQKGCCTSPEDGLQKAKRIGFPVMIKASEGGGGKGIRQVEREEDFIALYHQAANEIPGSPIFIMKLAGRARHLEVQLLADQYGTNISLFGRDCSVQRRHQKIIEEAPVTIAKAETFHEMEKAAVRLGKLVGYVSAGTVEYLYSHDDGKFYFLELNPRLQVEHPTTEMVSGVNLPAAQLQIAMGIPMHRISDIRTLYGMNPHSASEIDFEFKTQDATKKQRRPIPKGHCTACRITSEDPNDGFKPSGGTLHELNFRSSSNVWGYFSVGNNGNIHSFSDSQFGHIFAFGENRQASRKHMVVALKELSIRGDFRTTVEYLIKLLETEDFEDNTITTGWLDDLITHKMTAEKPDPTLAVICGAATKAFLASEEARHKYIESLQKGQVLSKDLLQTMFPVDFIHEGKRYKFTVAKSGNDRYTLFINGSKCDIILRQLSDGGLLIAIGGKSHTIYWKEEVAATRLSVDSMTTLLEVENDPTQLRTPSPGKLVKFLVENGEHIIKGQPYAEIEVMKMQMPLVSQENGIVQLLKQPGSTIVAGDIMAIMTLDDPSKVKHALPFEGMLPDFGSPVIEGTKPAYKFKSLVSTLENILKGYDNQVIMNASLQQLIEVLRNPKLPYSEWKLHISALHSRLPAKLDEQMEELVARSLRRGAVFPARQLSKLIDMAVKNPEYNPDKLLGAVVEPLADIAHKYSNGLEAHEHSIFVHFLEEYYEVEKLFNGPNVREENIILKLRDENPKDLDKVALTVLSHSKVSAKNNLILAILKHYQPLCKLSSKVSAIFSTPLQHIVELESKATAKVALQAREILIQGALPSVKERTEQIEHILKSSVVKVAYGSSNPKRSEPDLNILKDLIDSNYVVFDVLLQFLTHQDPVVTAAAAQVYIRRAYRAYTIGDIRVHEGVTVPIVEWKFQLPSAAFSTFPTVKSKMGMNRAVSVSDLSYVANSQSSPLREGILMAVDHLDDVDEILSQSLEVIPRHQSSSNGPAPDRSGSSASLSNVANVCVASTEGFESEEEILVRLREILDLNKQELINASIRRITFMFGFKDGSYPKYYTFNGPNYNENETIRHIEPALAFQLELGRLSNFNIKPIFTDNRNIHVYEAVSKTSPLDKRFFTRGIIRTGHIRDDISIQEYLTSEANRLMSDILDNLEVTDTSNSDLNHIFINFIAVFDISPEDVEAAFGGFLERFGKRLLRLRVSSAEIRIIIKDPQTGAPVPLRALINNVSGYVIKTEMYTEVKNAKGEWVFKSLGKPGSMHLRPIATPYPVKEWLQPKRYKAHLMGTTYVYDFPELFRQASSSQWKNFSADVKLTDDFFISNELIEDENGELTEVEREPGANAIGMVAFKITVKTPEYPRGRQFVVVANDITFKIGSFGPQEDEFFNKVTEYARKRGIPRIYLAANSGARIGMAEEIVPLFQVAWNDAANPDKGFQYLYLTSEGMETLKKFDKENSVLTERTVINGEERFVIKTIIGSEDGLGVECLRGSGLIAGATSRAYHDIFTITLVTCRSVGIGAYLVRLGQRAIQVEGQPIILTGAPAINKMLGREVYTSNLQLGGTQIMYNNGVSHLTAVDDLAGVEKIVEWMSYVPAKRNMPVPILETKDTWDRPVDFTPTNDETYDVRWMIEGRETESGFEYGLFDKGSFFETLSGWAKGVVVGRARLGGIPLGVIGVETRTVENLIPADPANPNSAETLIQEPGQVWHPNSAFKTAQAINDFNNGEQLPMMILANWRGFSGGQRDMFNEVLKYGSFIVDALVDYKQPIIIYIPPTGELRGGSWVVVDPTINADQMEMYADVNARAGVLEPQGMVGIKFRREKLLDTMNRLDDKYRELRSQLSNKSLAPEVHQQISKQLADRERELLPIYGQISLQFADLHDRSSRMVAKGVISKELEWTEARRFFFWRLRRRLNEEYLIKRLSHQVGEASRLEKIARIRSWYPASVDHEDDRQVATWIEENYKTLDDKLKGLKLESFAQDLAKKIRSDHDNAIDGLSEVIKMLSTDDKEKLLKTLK
Procedure: An exemplary procedure for the in vitro ACC inhibition assay, which can be used to determine the inhibitory action of compounds of the invention toward either human (hACC2) or fungal (fACC2), follows. The ADP-Glo™ Kinase Assay kit from Promega was used. The ADP-Glo™ Kinase Assay is a luminescent ADP detection assay to measure enzymatic activity by quantifying the amount of ADP produced during an enzyme reaction. The assay is performed in two steps; first, after the enzyme reaction, an equal volume of ADP-Glo™ Reagent is added to terminate the reaction and deplete the remaining ATP. Second, the Kinase Detection Reagent is added to simultaneously convert ADP to ATP and allow the newly synthesized ATP to be measured using a luciferase/luciferin reaction. Luminescence can be correlated to ADP concentrations by using an ATP-to-ADP conversion curve. […] 50 μL of the compound being tested (600 μM in DMSO) was added to a 384-well dilution plate. The compound was diluted 1:3 in succession in DMSO for each row for 11 wells. 0.5 μL ACC2 working solution was added to 384-well white Optiplate assay plate. 0.5 μL diluted compound solution in each column from step 2 was added to assay plate, each row containing 2 replicates. […] The plates were incubated at room temperature for 15 minutes. 5 μL substrate working solution was added to each well to initiate reaction. Final ACC2 reaction concentrations consist of: 5 nM ACC2, 20 μM ATP, 20 μM acetyl-CoA, 12 mM NaHCO3, 0.01% Brij35, 2 mM DTT, 5% DMSO, test compound concentrations: 30 μM, 10 μM, 3.33 μM, 1.11 μM, 0.37 μM, 0.123 μM, 0.0411 μM, 0.0137 μM, 0.00457 μM, 0.00152 μM, and 0.00051 μM. Plates were incubated at room temperature for 60 minutes. 10 μL ADP glo reagent was added. Plates were incubated at room temperature for 40 minutes. 20 μL kinase detection reagent was added. Plates were incubated at room temperature for 40 minutes, and then read on a Perkin Elmer EnVision 2104 plate reader for luminescence as Relative Light Units (RLU).
Data for each concentration, as well as the positive and negative controls were averaged, and the standard deviation calculated. Percent inhibition was calculated by the formula: 100×(average negative control−compound)/(average negative control−average positive control). The IC50 for each compound was calculated by fitting the data with a non-linear regression equation: Y=Bottom+(Top−Bottom)/(1+10 ((Log IC50−X)*HillSlope)), where X is the log of compound concentration and Y is percent inhibition.

Chain of human (hACC2) (O00763 whole entry): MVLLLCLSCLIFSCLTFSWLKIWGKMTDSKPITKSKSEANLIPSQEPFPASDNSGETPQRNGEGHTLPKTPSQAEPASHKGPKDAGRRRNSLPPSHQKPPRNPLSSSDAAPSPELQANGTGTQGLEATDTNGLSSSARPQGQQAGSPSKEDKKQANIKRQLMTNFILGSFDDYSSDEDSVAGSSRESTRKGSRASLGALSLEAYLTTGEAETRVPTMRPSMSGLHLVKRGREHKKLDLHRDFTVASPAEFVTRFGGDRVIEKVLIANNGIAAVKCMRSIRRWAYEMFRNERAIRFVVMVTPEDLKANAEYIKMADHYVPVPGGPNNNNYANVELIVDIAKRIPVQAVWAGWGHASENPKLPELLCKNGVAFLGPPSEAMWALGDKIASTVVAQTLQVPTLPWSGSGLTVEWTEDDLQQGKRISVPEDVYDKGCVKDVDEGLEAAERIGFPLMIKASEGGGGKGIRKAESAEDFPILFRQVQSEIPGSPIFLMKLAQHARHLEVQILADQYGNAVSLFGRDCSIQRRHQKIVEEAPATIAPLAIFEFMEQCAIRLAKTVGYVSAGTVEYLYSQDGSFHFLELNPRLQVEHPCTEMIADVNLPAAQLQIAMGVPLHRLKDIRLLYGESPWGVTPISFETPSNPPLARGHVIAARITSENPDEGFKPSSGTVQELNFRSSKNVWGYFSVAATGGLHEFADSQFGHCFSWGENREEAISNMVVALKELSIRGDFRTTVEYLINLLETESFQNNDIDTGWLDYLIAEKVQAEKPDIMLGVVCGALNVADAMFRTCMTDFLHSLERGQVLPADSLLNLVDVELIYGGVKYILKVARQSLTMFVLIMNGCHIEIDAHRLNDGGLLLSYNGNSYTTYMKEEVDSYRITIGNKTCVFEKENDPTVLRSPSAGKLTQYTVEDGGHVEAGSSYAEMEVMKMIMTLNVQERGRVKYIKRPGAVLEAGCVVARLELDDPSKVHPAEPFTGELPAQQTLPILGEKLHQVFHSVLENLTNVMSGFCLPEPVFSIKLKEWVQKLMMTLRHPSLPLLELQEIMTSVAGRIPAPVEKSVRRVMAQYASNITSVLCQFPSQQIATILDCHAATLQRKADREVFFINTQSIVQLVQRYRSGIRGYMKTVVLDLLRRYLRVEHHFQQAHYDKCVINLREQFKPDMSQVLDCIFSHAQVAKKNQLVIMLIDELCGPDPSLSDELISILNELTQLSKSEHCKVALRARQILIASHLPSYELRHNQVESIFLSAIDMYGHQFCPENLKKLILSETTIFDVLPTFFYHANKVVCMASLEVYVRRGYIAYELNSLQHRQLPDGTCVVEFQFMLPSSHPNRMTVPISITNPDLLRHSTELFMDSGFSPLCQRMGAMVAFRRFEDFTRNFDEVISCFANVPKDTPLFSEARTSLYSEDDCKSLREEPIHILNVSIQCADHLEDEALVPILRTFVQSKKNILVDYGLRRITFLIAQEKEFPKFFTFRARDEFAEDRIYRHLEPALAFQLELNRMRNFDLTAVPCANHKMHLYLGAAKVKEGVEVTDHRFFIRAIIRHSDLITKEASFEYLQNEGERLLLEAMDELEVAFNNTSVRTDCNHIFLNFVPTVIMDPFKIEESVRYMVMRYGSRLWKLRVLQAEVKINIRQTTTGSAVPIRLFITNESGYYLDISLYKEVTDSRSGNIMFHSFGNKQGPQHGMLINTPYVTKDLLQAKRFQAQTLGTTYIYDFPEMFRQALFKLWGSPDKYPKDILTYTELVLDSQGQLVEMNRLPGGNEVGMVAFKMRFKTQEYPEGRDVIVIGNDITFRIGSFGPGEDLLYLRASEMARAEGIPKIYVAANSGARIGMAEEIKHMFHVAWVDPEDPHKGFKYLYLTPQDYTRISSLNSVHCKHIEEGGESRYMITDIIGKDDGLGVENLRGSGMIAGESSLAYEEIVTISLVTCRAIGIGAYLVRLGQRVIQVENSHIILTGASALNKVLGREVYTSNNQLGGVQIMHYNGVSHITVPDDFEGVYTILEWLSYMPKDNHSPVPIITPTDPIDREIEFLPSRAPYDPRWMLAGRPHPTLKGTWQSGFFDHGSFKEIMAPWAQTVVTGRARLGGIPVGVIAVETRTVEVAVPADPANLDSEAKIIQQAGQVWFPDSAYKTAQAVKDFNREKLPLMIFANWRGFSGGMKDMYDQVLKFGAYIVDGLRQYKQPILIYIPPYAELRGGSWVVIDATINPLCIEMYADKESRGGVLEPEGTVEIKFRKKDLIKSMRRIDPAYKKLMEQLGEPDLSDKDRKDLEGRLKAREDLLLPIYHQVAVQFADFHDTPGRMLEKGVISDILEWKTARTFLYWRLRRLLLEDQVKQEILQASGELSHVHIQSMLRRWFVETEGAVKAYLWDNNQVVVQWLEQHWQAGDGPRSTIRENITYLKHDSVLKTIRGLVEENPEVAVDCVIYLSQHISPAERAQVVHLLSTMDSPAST

Compound	IC50 (human (hACC2))	MIC (C. albicans)	MIC (C. krusei)	MIC (C. parapsilosis)	IC90 (Botrtyis cinerea (Bc))	IC90 [1]	IC90 (Diplodia maydis (Dm))	IC90 [2]	IC90 [3]	IC90 [4]	IC90 (Rhizoctonia solani (Rs))	IC90 (Septoria tritici (St))	IC50 (fungal (fACC2))
COc1ccc(F)cc1[C@@H](O)Cn1c(=O)n([C@H](C)C(=O)N2CCCC2)c(=O)c2c(C)c(-n3nccn3)sc21 [Compound I-195]	5 to 10 nM	1.01 to 2 µg/mL (≈ 1.86 to 3.69 µM)	1.01 to 2 µg/mL (≈ 1.86 to 3.69 µM)	1.01 to 2 µg/mL (≈ 1.86 to 3.69 µM)	2 µg/mL (≈ 3.69 µM)	2 µg/mL (≈ 3.69 µM)	10 µg/mL (≈ 18.4 µM)	0.4 µg/mL (≈ 0.737 µM)	0.4 µg/mL (≈ 0.737 µM)	> 50 µg/mL	0.4 µg/mL (≈ 0.737 µM)	> 50 µg/mL	0.3 to 1 nM
COc1ccccc1[C@@H](O)Cn1c(=O)n(C(C)(C)C(N)=O)c(=O)c2c(C)c(-n3nccn3)sc21 [Compound I-196]	10 to 40 nM	> 4.01 µg/mL	2.01 to 4 µg/mL (≈ 4.15 to 8.26 µM)	> 4.01 µg/mL	> 50 µg/mL	> 50 µg/mL	> 50 µg/mL	> 50 µg/mL	> 50 µg/mL	> 50 µg/mL	2 µg/mL (≈ 4.13 µM)	> 50 µg/mL	1 to 5 nM
COc1ccc(F)cc1[C@@H](O)Cn1c(=O)n([C@H](C)C(=O)N(C)C(C)C)c(=O)c2c(C)c(-n3nccn3)sc21 [Compound I-197]	5 to 10 nM	2.01 to 4 µg/mL (≈ 3.69 to 7.34 µM)	2.01 to 4 µg/mL (≈ 3.69 to 7.34 µM)	2.01 to 4 µg/mL (≈ 3.69 to 7.34 µM)	0.4 µg/mL (≈ 0.734 µM)	2 µg/mL (≈ 3.67 µM)	2 µg/mL (≈ 3.67 µM)	0.08 µg/mL (≈ 0.147 µM)	0.4 µg/mL (≈ 0.734 µM)	> 50 µg/mL	0.4 µg/mL (≈ 0.734 µM)	> 50 µg/mL	0.3 to 1 nM
COc1ccc(F)cc1[C@@H](O)Cn1c(=O)n([C@@H](C)C(=O)N(C)C(C)C)c(=O)c2c(C)c(-n3nccn3)sc21 [Compound I-198]	1 to 5 nM	2.01 to 4 µg/mL (≈ 3.69 to 7.34 µM)	2.01 to 4 µg/mL (≈ 3.69 to 7.34 µM)	2.01 to 4 µg/mL (≈ 3.69 to 7.34 µM)	0.4 µg/mL (≈ 0.734 µM)	0.4 µg/mL (≈ 0.734 µM)	0.4 µg/mL (≈ 0.734 µM)	0.08 µg/mL (≈ 0.147 µM)	0.4 µg/mL (≈ 0.734 µM)	10 µg/mL (≈ 18.4 µM)	0.08 µg/mL (≈ 0.147 µM)	> 50 µg/mL	1 to 5 nM
COc1ccccc1[C@H](Cn1c(=O)n([C@H](C)C(=O)N(C)C(C)C)c(=O)c2c(C)c(-n3nccn3)sc21)OCCC#N [Compound I-205]	5 to 10 nM	2.01 to 4 µg/mL (≈ 3.47 to 6.9 µM)	2.01 to 4 µg/mL (≈ 3.47 to 6.9 µM)	1.01 to 2 µg/mL (≈ 1.74 to 3.45 µM)	2 µg/mL (≈ 3.45 µM)	10 µg/mL (≈ 17.3 µM)	10 µg/mL (≈ 17.3 µM)	2 µg/mL (≈ 3.45 µM)	10 µg/mL (≈ 17.3 µM)	> 50 µg/mL	10 µg/mL (≈ 17.3 µM)	> 50 µg/mL	0.3 to 1 nM
COc1ccccc1[C@H](Cn1c(=O)n([C@@H](C)C(=O)N(C)C(C)C)c(=O)c2c(C)c(-n3nccn3)sc21)OCCC#N [Compound I-206]	1 to 5 nM	2.01 to 4 µg/mL (≈ 3.47 to 6.9 µM)	2.01 to 4 µg/mL (≈ 3.47 to 6.9 µM)	1.01 to 2 µg/mL (≈ 1.74 to 3.45 µM)	2 µg/mL (≈ 3.45 µM)	2 µg/mL (≈ 3.45 µM)	2 µg/mL (≈ 3.45 µM)	0.08 µg/mL (≈ 0.138 µM)	0.08 µg/mL (≈ 0.138 µM)	10 µg/mL (≈ 17.3 µM)	0.08 µg/mL (≈ 0.138 µM)	10 µg/mL (≈ 17.3 µM)	0.3 to 1 nM
